Assay results published in patent US20020082273A1, “Agents for use in the treatment of alzheimer's disease” (priority 1998, published 2002).

Tests used:
[1] = tested on: Aβ1-40 or Aβ1-42 SDS-resistant polymers; experiment: Dissolution of in vitro Cu^2+-induced SDS-resistant Aβ polymers; type: biochemical, human; details: polymers generated at pH 7.4
[2] = Table 1; K=[ML]/[M][L]; cited from earlier work
[3] = Table 1; K=[ML]/[M][L]; cited from earlier work; remark: listed apart in the source
[4] = Table 1; K=[ML]/[M][L]; cited from earlier work; remark: listed apart in the source
[5] = Table 1; K=[ML]/[M][L]; cited from earlier work; remark: listed apart in the source
[6] = Table 1; K=[ML]/[M][L]; cited from earlier work; remark: listed apart in the source
[7] = Table 1; K=[ML]/[M][L]; cited from earlier work; remark: listed apart in the source
[8] = Table 1; K=[ML]/[M][L]; cited from earlier work; remark: listed apart in the source

O=C(O)CN(CCN(CC(=O)O)CC(=O)O)CC(=O)O [EDTA, ethylenediaminetetra acetic acid]
effect of chelators on amount of SDS-resistant polymers [1]: less effective in destabilizing the polymers
LogK, Mg [2]: 8.9
LogK, Al [3]: 16.5
LogK, Co [4]: 16.5
LogK, Zn [5]: 16.5
LogK, Ca [6]: 10.7
LogK, Cu [7]: 18.8
LogK, Fe [8]: 14.3
